Test results published in US12570614B2, “Phenyl amino pyrimidine compounds and uses thereof” (GlaxoSmithKline LLC, priority 2007, dated 2026).

Legend:
BaF3 wild-type cells = experiment: Cellular screening, BaF3 wild-type cells (Alamar Blue); assay type: cell-based; settings: Mus musculus, 48-72 hr incubation, read-out: BAF3wt_IC50_μM
Procedure: (§1) For screening purposes, compounds were diluted in 96 well plates at a concentration of 20 μM. Plates were warmed at 37° C. for 30 minutes before the assay was performed.
(§2) The growth factor dependent myelomonocytic cell line BaF3 bearing the pTET-off plasmid (Clontech) was transfected with either pTELJAK2 or pTELJAK3, and the transfected cells were selected for growth-factor independent cell growth. The BaF3 wild-type cells were cultured in DMEM containing 10% FCS, 10% WEHI 3B conditioned medium. The BaF3 TELJAK cells ([…]) were cultured in DMEM 10% Tet-System Approved FBS (without WEHI 3B conditioned medium).
(§3) Cell suspensions were prepared by harvesting cells from culture (the cells used in this test were in late log phase growth with high viability.) Cells were diluted in the appropriate growth medium, as described above, to 1.1× final concentration (from 50,000 cell/mL to 200,000 cell/mL, depending on cell line).
(§4) Compounds to be tested were added (10 μL, 10× final concentration) to a flat bottomed 96-well plate. The cellular suspension (90 μL per well) was then added, and the plate incubated for 48-72 hr at 37° C., 5% CO2. Alamar Blue 10 μL per well was added and the plates returned to the incubator for a further 4-6 hours. The plates were then read at 544 nm.
(§5) Result are given in table 2 where +++ is <1 μM, ++ is <5 μM and + is <20 μM

CTLL2 = experiment: Cellular screening, CTLL2 cells (Alamar Blue); assay type: cell-based; settings: Mus musculus, CTLL-2; 48-72 hr incubation; read-out: CTLL2_IC50_μM
Procedure: as §1, §3, §4, §5

[1] = tested on: BaF3 TELJAK cells (BafT_J2); experiment: Cellular screening, BaF3 TELJAK2 cells (Alamar Blue); assay type: cell-based; settings: Mus musculus, BaF3; 48-72 hr incubation; read-out: BafT_J2_IC50_μM
Procedure: as §1
A TEL/Jak2 fusion was generated by digestion of the TELPCR product with BamH I/Sal I restriction enzymes, digestion of the JAK2 PCR product with Sal I/Not I restriction enzymes, followed by ligation and subcloning of the ligation product into the mammalian expression Vector pTRE 2 (Clontech), which was prepared by digestion with BamH I—Not I restriction enzymes, to give the TEL/Jak2 fusion plasmid pTELJAK2.
as §2, §3
as §4, with “hours.” for “hours. The plates were then read at 544 nm.”
as §5

human JAK2 = human JAK2 (Homo sapiens (Human), UniProt O60674); experiment: JAK2 kinase domain Alphascreen enzyme screening; assay type: biochemical; settings: read-out: JAK2_IC50_nM
human JAK2, sequence (O60674 849-1124): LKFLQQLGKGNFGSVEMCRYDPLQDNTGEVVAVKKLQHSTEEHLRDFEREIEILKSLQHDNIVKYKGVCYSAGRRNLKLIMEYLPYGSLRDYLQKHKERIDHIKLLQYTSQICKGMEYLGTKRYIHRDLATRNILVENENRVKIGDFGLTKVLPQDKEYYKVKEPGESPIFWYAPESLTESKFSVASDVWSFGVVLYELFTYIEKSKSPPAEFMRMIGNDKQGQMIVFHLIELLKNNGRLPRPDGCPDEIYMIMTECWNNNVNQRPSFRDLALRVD
Procedure: (§6) For screening purposes, compounds (in 100% DMSO) were warmed at 37° C. for at least 20 minutes before use. A […] stock was initially made in assay buffer, where the final concentration of DMSO was 0.3%. The stocks were then diluted in 384 well Optiplates (Packard) where the final concentration of the compound was 5 μM.
The kinase domain of human JAK2 was amplified from U937 mRNA using the polymerase chain reaction with the following primers: […]
The JAK2 PCR products were cloned into the pDest20 destination vector (Gibco). The JAK2 plasmid was then transformed into competent DH10Bac cells (Gibco), and the recombinant baculovirus was prepared via Sf9 insect cell transfection.
(§7) Baculovirus preparations from each of the JAK family members were infected into one litre of […] (Spodoptera frugiperda) cells (Invitrogen) grown in SF900II serum free medium (Invitrogen) to a cell density of approximately 2×10^6 cells/ml. Cells were infected with virus at a cell culture to virus stock ratio of 20:1. Cells were harvested and lysed 48 hours post infection. The GST-tagged JAK kinase domains were purified by affinity chromatography on a GSH agarose column (Scientifix).
Alphascreen phosphotyrosine acceptor beads followed by streptavidin donor beads at a concentration of 1/100 in stop buffer were added to each well under subdued light and incubated for 2-3 hours. The Alphascreen plates were read on a Packard Fusion Alpha instrument

human JAK3 = human JAK3 (Homo sapiens (Human), UniProt P52333); experiment: JAK3 kinase domain Alphascreen enzyme screening; assay type: biochemical; settings: read-out: JAK3_ IC50_nM
human JAK3, sequence (P52333 822-1111): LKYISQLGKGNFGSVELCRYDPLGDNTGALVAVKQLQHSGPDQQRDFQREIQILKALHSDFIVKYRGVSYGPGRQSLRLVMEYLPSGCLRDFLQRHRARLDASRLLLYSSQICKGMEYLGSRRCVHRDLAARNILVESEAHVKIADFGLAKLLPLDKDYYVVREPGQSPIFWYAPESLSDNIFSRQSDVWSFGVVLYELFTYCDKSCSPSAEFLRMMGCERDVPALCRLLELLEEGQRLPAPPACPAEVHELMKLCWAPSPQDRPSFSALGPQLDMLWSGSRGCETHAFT
Procedure: as §6
The kinase domain of human JAK3 was amplified from U937 mRNA using the polymerase chain reaction with the following primers: […]
The JAK3 PCR products were cloned into the pDest20 destination expression vector (Gibco). The JAK3 plasmid was then transformed into competent DH10Bac cells (Gibco), and the recombinant baculovirus was prepared via Sf9 insect cell transfection.
as §7
The compounds were then incubated with substrate in the presence of either […] ATP for 60 or 90 minutes. […] (final concentration 111 μM) or substrate-2 substrate with the sequence biotin-[…] [SEQ ID NO: 16] (final concentration 133 μM). Alphascreen phosphotyrosine acceptor beads followed by streptavidin donor beads at a concentration of 1/100 in stop buffer were added to each well under subdued light and incubated for 2-3 hours. The Alphascreen plates were read on a Packard Fusion Alpha instrument

| IC50 (BaF3 wild-type cells) [µM] | IC50 [1] [µM] | IC50 (human JAK2) [µM] | IC50 (human JAK3) [µM] | Compound | IC50 (CTLL2) [µM] |
| --- | --- | --- | --- | --- | --- |
| < 5 |  |  |  | N#CCC(=O)Nc1ccc(-c2ccnc(Nc3ccc(N4CCOCC4)cc3)n2)cc1 [Compound 85, 2-cyano-N-(4-(2-(4-morpholinophenyl-amino)pyrimidin-4-yl)phenyl)acetamide] | < 1 |
| < 5 | < 5 | < 0.1 | < 0.5 | N#CCNC(=O)c1ccc(-c2ccnc(Nc3ccc(N4CCC(CO)CC4)cc3)n2)cc1 [Compound 42, N-(cyanomethyl)-4-(2-(4-(4-(hydroxymethyl)piperidin-1-yl)phenylamino)pyrimidin-4-yl)benzamide] | < 5 |
| < 5 |  |  | < 0.5 | CN1CCN(c2ccc(Nc3nccc(-c4ccc(C(=O)NCC#N)cc4)n3)cc2)CC1 [Compound 44, N-(cyanomethyl)-4-(2-(4-(4-methylpiperazin-1-yl)phenylamino)pyrimidin-4-yl)benzamide] | < 5 |
| < 5 | < 1 | < 0.1 | < 0.1 | Cc1cnc(Nc2ccc(N3CCC(O)CC3)cc2)nc1-c1ccc(C(=O)NCC#N)cc1 [Compound 58, N-(cyanomethyl)-4-(2-(4-(4-hydroxypiperidin-1-yl)phenylamino)-5-methylpyrimidin-4-yl)benzamide] | < 1 |
|  |  | < 0.1 | < 0.1 | Cc1cnc(Nc2ccc(N3CCOCC3)cc2)nc1-c1ccc(C(=O)NCC#N)cc1 [Compound 92, N-(cyanomethyl)-4-(5-methyl-2-(4-morpholinophenyl-amino)pyrimidin-4-yl)benzamide] | < 1 |
|  |  | < 0.1 | < 0.1 | COc1cc(-c2ccnc(Nc3ccc(N4CCOCC4)cc3)n2)ccc1C(=O)NCC#N [Compound 45, N-(cyanomethyl)-2-methoxy-4-(2-(4-morpholinophenyl-amino)pyrimidin-4-yl)benzamide] | < 1 |
| < 5 | < 1 | < 0.1 | < 0.5 | N#CCNC(=O)c1ccc(-c2nc(Nc3ccc(N4CCOCC4)cc3)ncc2Cl)cc1 [Compound 53, 4-(5-chloro-2-(4-morpholinophenyl-amino)pyrimidin-4-yl)-N-(cyanomethyl) benzamide] | < 5 |
| < 1 | < 1 | < 0.1 | < 0.1 | N#CCNC(=O)c1ccc(-c2nc(Nc3ccc(N4CCOCC4)cc3)ncc2Br)cc1 [Compound 65, 4-(5-bromo-2-(4-morpholinophenyl-amino)pyrimidin-4-yl)-N-(cyanomethyl) benzamide] | < 1 |
| > 20 | < 5 | < 0.5 | < 1 | O=C(NCc1cccnc1)c1ccc(-c2ccnc(Nc3ccc(N4CCOCC4)cc3)n2)cc1 [Compound 18, 4-(2-(4-morpholinophenyl-amino)pyrimidin-4-yl)-N-(pyridin-3-ylmethyl)benzamide] | < 20 |
| < 20 | < 5 | < 0.1 | < 1 | N#CCNC(=O)c1ccc(-c2ccnc(Nc3ccc(C(=O)N4CCC(N5CCCC5)CC4)cc3)n2)cc1 [Compound 50, N-(cyanomethyl)-4-(2-(4-(4-(pyrrolidin-1-yl)piperidine-1-carbonyl)phenyl-amino)pyrimidin-4-yl)benzamide] | > 20 |
|  |  | < 1 | < 0.5 | CC(C)(C#N)NC(=O)c1ccc(-c2ccnc(Nc3ccc(N4CCOCC4)cc3)n2)cc1 [Compound 23, N-(2-cyanopropan-2-yl)-4-(2-(4-morpholinophenyl-amino)pyrimidin-4-yl)benzamide] |  |
|  |  | > 1 |  | N#Cc1cc(-c2ccnc(Nc3ccc(N4CCOCC4)cc3)n2)ccc1F [Compound 7, 2-fluoro-5-(2-(4-morpholinophenyl-amino)pyrimidin-4-yl)benzonitrile] |  |
| < 1 |  | < 0.1 |  | N#CCNC(=O)c1ccc(-c2ccnc(Nc3ccc(CN4CCS(=O)(=O)CC4)cc3)n2)cc1 [Compound 90] | < 20 |
| < 5 | < 1 |  | < 0.1 | Cc1cnc(Nc2ccc(N3CCC(CO)CC3)cc2)nc1-c1ccc(C(=O)NCC#N)cc1 [Compound 39, N-(cyanomethyl)-4-(2-(4-(4-(hydroxymethyl)piperidin-1-yl)phenylamino)-5-methylpyrimidin-4-yl)benzamide] | < 5 |
|  | > 20 | > 1 | < 0.5 | O=C(Nc1cc[nH]n1)c1ccc(-c2ccnc(Nc3ccc(N4CCOCC4)cc3)n2)cc1 [Compound 22, 4-(2-(4-morpholinophenyl-amino)pyrimidin-4-yl)-N-(1H-pyrazol-3-yl)benzamide] |  |
|  |  | < 0.5 |  | COc1cc(Nc2nccc(-c3ccc(F)c(C#N)c3)n2)cc(OC)c1OC [Compound 8, 2-fluoro-5-(2-(3,4,5-trimethoxyphenyl-amino)pyrimidin-4-yl)benzonitrile] |  |
|  | > 20 | > 1 | > 1 | N#Cc1ccc(-c2ccnc(Nc3ccc(N4CCOCC4)cc3)n2)cc1Cl [Compound 19, 2-chloro-4-(2-(4-morpholinophenyl-amino)pyrimidin-4-yl)benzonitrile] |  |
| > 20 | > 20 |  |  | CCOC(=O)c1ccc(-c2ccnc(Nc3ccc(N4CCOCC4)cc3)n2)cc1 [Compound 1, ethyl 4-(2-(4-morpholinophenyl-amino)pyrimidin-4-yl)benzoate] | > 20 |
|  | > 20 | < 0.5 |  | N#Cc1cccc(-c2ccnc(Nc3ccc(N4CCOCC4)cc3)n2)c1 [Compound 5, 3-(2-(4-morpholinophenyl-amino)pyrimidin-4-yl)benzonitrile] |  |
| < 5 | < 1 |  | < 0.1 | N#CCNC(=O)c1ccc(-c2ccnc(Nc3ccc(N4CCC(O)CC4)cc3)n2)cc1 [Compound 36, N-(cyanomethyl)-4-(2-(4-(4-hydroxypiperidin-1-yl)phenylamino)pyrimidin-4-yl)benzamide] | < 5 |
|  |  | < 0.1 |  | Cc1cc(-c2ccnc(Nc3ccc(N4CCOCC4)cc3)n2)ccc1C(=O)NCC#N [Compound 11, N-(cyanomethyl)-2-methyl-4-(2-(4-morpholinophenyl-amino)pyrimidin-4-yl)benzamide] | < 5 |
|  |  |  |  | N#CCNC(=O)c1ccc(-c2ccnc(Nc3ccc(N4CCSCC4)cc3)n2)cc1 [Compound 25, N-(cyanomethyl)-4-(2-(4-thiomorpholino-phenylamino)pyrimidin-4-yl)benzamide] | < 5 |
| < 5 |  |  |  | Cc1cnc(Nc2ccc(N3CCCC(O)C3)cc2)nc1-c1ccc(C(=O)NCC#N)cc1 (stereo not drawn) [Compound 46] | < 1 |
